{
  "source": "patent US10596259B2",
  "about": "“Tumor radiosensitization with monomethyl auristatin E (MMAE) and derivatives thereof” (The Regents of the University of California, priority 2015, dated 2020)",
  "key": {"PANC-1 cells [1]": {"test_system": "PANC-1 cells", "assay": "Alamar Blue cell viability assay", "assay_type": "cell-based, Human", "protocol": "(§1) Cells were plated in 96 well plates at varying cell densities and exposed to range of concentrations of MMAE or paclitaxel for 72 hrs. Alamar Blue (also known as resazurin) was added to the cells and allowed to incubate for 2 hrs at 37° C. Plates were analyzed using a plate reader with fluorescence measured at 560 nm. For irradiated cells, cells were treated with MMAE overnight followed by 6 Gy.\n(§2) Cells were plated in 96-well plates and exposed to MMAE or paclitaxel for 72 hours and analyzed at 560 nm. For irradiated cells, cells were treated with MMAE overnight followed by 6 Gy."}, "779E cells": {"test_system": "779E cells", "assay": "Alamar Blue cell viability assay", "assay_type": "cell-based, Human", "protocol": "as §1, §2"}, "HCT-116 cells [2]": {"test_system": "HCT-116 cells", "assay": "Alamar Blue cell viability assay", "assay_type": "cell-based, Human", "protocol": "Alamar Blue (also known as resazurin) was added to the cells and allowed to incubate for 2 hrs at 37° C. Plates were analyzed using a plate reader with fluorescence measured at 560 nm. For irradiated cells, cells were treated with MMAE overnight followed by 6 Gy.\n(§3) Alamar Blue (resazurin) was added to the cells and allowed to incubate for 2 hrs at 37° C. Plates were analyzed using a plate reader with fluorescence measured at 560 nm.\nas §2"}, "CAL-27 cells [3]": {"test_system": "CAL-27 cells", "assay": "Alamar Blue cell viability assay", "assay_type": "cell-based, Human", "settings": "72 hours", "protocol": "as §3"}, "LN-229 cells": {"test_system": "LN-229 cells", "assay": "Alamar Blue cell viability assay", "assay_type": "cell-based", "settings": "72 hours", "protocol": "as §3"}, "cyclin B": {"test_system": "cyclin B", "assay": "Immunoblot for cell phase-specific cyclins in HCT-116 cells", "assay_type": "cell-based, Human", "settings": "5 nmol/L MMAE, 24-hour exposure", "protocol": "(§4) MMAE- and IR-treated cells were harvested and lysed in RIPA buffer with protease and phosphatase inhibitors (Roche). Thirty micrograms of lysate underwent electrophoresis using 4% to 12% Bis-Tris gels (Life Technologies), transferred to polyvinylidene difluoride (PVDF) membranes, and incubated with indicated primary antibodies (Cell Signaling Technology). Blots were developed by ECL (Pierce).\nBecause MMAE blocks cells in the radiosensitive G2-M phase of the cell cycle, we tested whether MMAE specifically interacted with IR. We hypothesized that while a short exposure to MMAE would not influence radiosensitivity, prolonged MMAE exposure with cells accumulating in G2-M would increase sensitivity to IR. DNA double-stand breaks are a hallmark of IR damage and can be measured by neutral comet assay. HCT-116 cells were treated with 5 nmol/L MMAE for varying lengths of time (0, 2, 4, or 24 hours) and then irradiated (FIG. 34A)."}, "HCT-116 cells [4]": {"test_system": "HCT-116 cells", "assay": "Cell cycle analysis by FACS with PI staining", "assay_type": "cell-based, Human", "protocol": "(§5) Cells were treated with 0, 1, 2, or 5 nM MMAE for 24 hours and then fixed in methanol. Cells were treated with RNAse, stained with propidium iodide and analyzed by FACS using FloJo software.\n(§6) Cells were treated with MMAE for 24 hours and then fixed in methanol. Cells were treated with RNAse, stained with propidium iodide (PI), and analyzed by FACS using FlowJo software."}, "PANC-1 cells [5]": {"test_system": "PANC-1 cells", "assay": "Cell cycle analysis by FACS with PI staining", "assay_type": "cell-based, Human", "settings": "2 nmol/L MMAE, 24 hours", "protocol": "as §5, §6"}, "CHK1 (pS345)": {"test_system": "CHK1 (pS345)", "assay": "Immunoblot for DNA damage checkpoint activation in HCT-116 cells", "assay_type": "cell-based, Human", "settings": "MMAE 24 hours, then 6 Gy", "protocol": "as §4\n(§7) Because MMAE reduced clonogenic cell survival following IR, we tested whether MMAE increased apoptosis in irradiated cells. HCT-116 cells were treated with MMAE for 24 hours followed by IR. Cells were collected 24 hours after IR and the sub-G1 population (apoptotic) was measured. […] Because MMAE increased DNA double-strand breaks in irradiated cells (FIG. 34), we then evaluated whether MMAE altered the DNA damage response in irradiated cells. HCT-116 cells were treated with MMAE for 24 hours followed by 6 Gy. Cells were collected 1 hour after IR, and activation of the DNA damage checkpoint proteins CHK1 (pS345) and CHK2 (pT68) was ascertained (FIG. 36B). […] Upon DNA damage, histone H2A becomes phosphorylated at S139, γH2AX."}, "CAL-27 cells [6]": {"test_system": "CAL-27 cells", "assay": "Cell cycle analysis by flow cytometry (PI)", "assay_type": "cell-based, Human", "settings": "5 nM, 24 hrs", "protocol": "Cells were treated with RNAse, stained with propidium iodide (PI) and analyzed by FACS using FloJo software."}, "HCT-116 cells [7]": {"test_system": "HCT-116 cells", "assay": "γH2Ax immunostaining (foci formation)", "assay_type": "cell-based, Human", "protocol": "(§8) Cells were grown on glass cover slips were treated with indicated concentrations of MMAE overnight and then irradiated. Two hours post IR, cells were fixed in 4% paraformaldehyde. Samples were then permeabilized in 0.25% Triton X-100, blocked in 1% BSA, incubated with antibody to γH2Ax for 1 hr at room temperature, washed, and incubated in secondary antibody for 1 hour at room temperature. Samples were incubated for 1 minute in a 1:5000 dilution of DAPI to label nuclei. The number of foci per cell was counted. 6-8 high power fields were counted per each group.\n(§9) Cells grown on glass coverslips were treated with MMAE overnight and then irradiated. Two hours after IR, cells were fixed, permeabilized, and stained with antibody to […]. Nuclei were stained with 4′,6-diamidino-2-phenylindole (DAPI). Foci were counted in 6 to 8 high-power fields per group."}, "PANC-1 cells [8]": {"test_system": "PANC-1 cells", "assay": "γH2Ax immunostaining (foci formation)", "assay_type": "cell-based, Human", "protocol": "as §8, §9"}, "HCT-116 cells [9]": {"test_system": "HCT-116 cells", "assay": "Apoptosis (sub-G1 population) after MMAE and IR", "assay_type": "cell-based, Human", "protocol": "as §6, §7"}, "[10]": {"settings": "72 hours exposure (Example 3), read-out: IC50"}, "[11]": {"settings": "72 hours exposure, read-out: IC50"}, "[12]": {"settings": "MMAE overnight then 6 Gy IR, continuous exposure, viability at 72 hours, read-out: IC50 for MMAE"}},
  "note": "Where “and” joins values, the source holds several entries; their conditions need not be identical. Equal entries are not always repeated. Entries after “also recorded” stand apart in the source; their conditions may differ. Where two headings read alike, the source gives them in different places. Non-standard residues stand in square brackets, D forms with d. Residues, ends and D or L forms follow the SMILES beside them. *: point of attachment. Dolaproine = CO[C@@H]([C@@H]1CCCN1)[C@@H](C)C(=O)O; Dil = CC[C@H](C)[C@H](NC)[C@@H](CC(=O)O)OC; X1 = C[C@@H](N*)[C@@H](O)c1ccccc1; NMeV = CN[C@H](C(=O)O)C(C)C",
  "data": [
    {"smiles": "CC[C@H](C)[C@@H]([C@@H](CC(=O)N1CCC[C@H]1[C@H](OC)[C@@H](C)C(=O)N[C@H](C)[C@@H](O)c1ccccc1)OC)N(C)C(=O)[C@@H](NC(=O)[C@@H](NC)C(C)C)C(C)C", "note": "[MMAE, monomethyl auristatin E] (H-[NMeV]V[Dil][Dolaproine]-X1)", "values": [
      {"measurement": "IC50", "setting": "PANC-1 cells [1]; [10]", "value": 600, "unit": "pM"},
      {"measurement": "IC50", "setting": "PANC-1 cells [1]; [11]", "value": 600, "unit": "pM"},
      {"measurement": "IC50", "setting": "PANC-1 cells [1]; IR 6 Gy combined with MMAE (Example 3), read-out: IC50 for MMAE", "value": 400, "unit": "pM"},
      {"measurement": "IC50", "setting": "PANC-1 cells [1]; MMAE alone, no IR, continuous exposure, viability at 72 hours, read-out: IC50 for MMAE", "value": 810, "unit": "pM"},
      {"measurement": "IC50", "setting": "PANC-1 cells [1]; [12]", "value": 350, "unit": "pM"},
      {"measurement": "relative reduction in the IC50 of MMAE", "setting": "PANC-1 cells [1]; MMAE with 6 Gy IR vs MMAE alone", "value": "> 50% and ~50%"},
      {"measurement": "IC50", "setting": "PANC-1 cells [1]; non-irradiated (Example 3), read-out: IC50 for MMAE", "value": 800, "unit": "pM"},
      {"measurement": "IC50", "setting": "779E cells; 72 hours exposure", "value": 5610, "unit": "pM"},
      {"measurement": "IC50", "setting": "779E cells; 72 hours exposure (Example 3)", "value": 5600, "unit": "pM"},
      {"measurement": "IC50", "setting": "HCT-116 cells [2]; [10]", "value": 1700, "unit": "pM"},
      {"measurement": "IC50", "setting": "HCT-116 cells [2]; [11]", "value": 1660, "unit": "pM"},
      {"measurement": "IC50", "setting": "HCT-116 cells [2]; MMAE alone, no IR (Example 3), read-out: IC50 for MMAE", "value": 1600, "unit": "pM"},
      {"measurement": "IC50", "setting": "HCT-116 cells [2]; MMAE alone, no IR, continuous exposure, viability 72 hours after initiation, read-out: IC50 for MMAE", "value": 1580, "unit": "pM"},
      {"measurement": "IC50", "setting": "HCT-116 cells [2]; MMAE and 6 Gy IR (Example 3), read-out: IC50 for MMAE", "value": 800, "unit": "pM"},
      {"measurement": "IC50", "setting": "HCT-116 cells [2]; [12]", "value": 780, "unit": "pM"},
      {"measurement": "IC50", "setting": "CAL-27 cells [3]", "value": 1100, "unit": "pM"},
      {"measurement": "IC50", "setting": "LN-229 cells", "value": 3800, "unit": "pM"},
      {"measurement": "accumulation of cyclins", "setting": "cyclin B", "value": "specific accumulation of the G2-M cyclin B"},
      {"measurement": "cell-cycle profile", "setting": "HCT-116 cells [4]; 1 nmol/L MMAE, 24 hours", "value": "did not alter the cell-cycle profile"},
      {"measurement": "cells blocked in G2/M", "setting": "HCT-116 cells [4]; 5 nM (5 nmol/L) MMAE, 24 hrs", "value": 50, "unit": "%"},
      {"measurement": "cells blocked in G2-M", "setting": "PANC-1 cells [5]", "value": 50, "unit": "%"},
      {"measurement": "CHK1 activation in irradiated cells", "setting": "CHK1 (pS345)", "value": "enhanced CHK1 activation"},
      {"measurement": "cells in G2/M", "setting": "CAL-27 cells [6]", "value": 60, "unit": "%"},
      {"measurement": "γH2AX foci formation vs IR alone", "setting": "HCT-116 cells [7]; MMAE pre-treatment, then IR", "value": "also seen in HCT-116 cells; also recorded: significantly increased"},
      {"measurement": "DNA damage (γH2AX)", "setting": "HCT-116 cells [7]; nonirradiated cells", "value": "did not alter DNA damage"},
      {"measurement": "γH2AX foci formation vs IR alone", "setting": "PANC-1 cells [8]; MMAE pre-treatment, then IR", "value": "further significant enhancement; also recorded: significantly increased"},
      {"measurement": "γH2AX staining vs vehicle", "setting": "PANC-1 cells [8]; non-irradiated cells", "value": "did not significantly increase; also recorded: did not alter DNA damage"},
      {"measurement": "apoptosis, IR combined with MMAE vs MMAE", "setting": "HCT-116 cells [9]; MMAE 24 hours then IR, collected 24 hours after IR", "value": "no further increase in apoptosis"},
      {"measurement": "apoptosis vs vehicle", "setting": "HCT-116 cells [9]; MMAE alone, 24 hours", "value": "significant increase in apoptosis"}
    ]}
  ]
}
